Consider one molecule from patent US9061016B2, “Aqueous solution comprising 3-quinuclidinones for the treatment hyperproliferative, autoimmune and heart disease” (APREA AB, priority 2010, dated 2015).

The subject of one series is 22Rv1. The series is described as follows: Effect of APR-246 on cell viability in cancer cell lines. Type of series: cell-based. The settings on record: Homo sapiens, Prostate carcinoma 22Rv1, mean±SD. As to the method: (§1) The therapeutic activity of the compound 2-(hydroxymethyl)-2-(methoxymethyl)-quinuclidin-3-one (herein also referred to as APR-246) in the treatment of various cancers has been shown by in vitro assays using various cancer cell lines, cf. Table 2, wherein the IC50 of APR-246 in various types of cancerous cells is shown.
(§2) In Table 2, the results are shown as mean±SD; the IC50 values are calculated as the average of the IC50 values in the individual experiments.

Another series relates to BT-474. The series is described as above. Type of series: cell-based. The settings on record: Homo sapiens, Breast ductal carcinoma BT-474, mean±SD. As to the method:
as §1, §2

In a further series the test system is H1299-His175. The series is described as above. Type of series: cell-based. The settings on record: Non-small cell lung carcinoma H1299-His175, mean±SD. As to the method: as §1, §2
The next series concerns H1299. The series is described as above. Type of series: cell-based. The settings on record: Homo sapiens, NCI-H1299, Non-small cell lung carcinoma H1299, mean±SD. As to the method: as §1, §2
Another series concerns HT-29. The description is as above. Type of series: cell-based. The settings on record: Homo sapiens, Colorectal adenocarcinoma HT-29, mean±SD. As to the method: as §1, §2
The next series concerns KBM3. The description is as above. Type of series: cell-based. The settings on record: Acute Myelomonocytic Leukaemia KBM3, mean±SD. As to the method: as §1, §2
The test system of a further series is MCF-7. The description is as above. Type of series: cell-based. The settings on record: Homo sapiens, MCF7, Breast adenocarcinoma MCF-7, mean±SD. As to the method: as §1, §2
The next series concerns MDA-MB-231. Described as above. Type of series: cell-based. The settings on record: Homo sapiens, Breast adenocarcinoma MDA-MB-231, mean±SD. As to the method: as §1, §2
A further series has as its system PC3-175. The series is described as above. Type of series: cell-based. The settings on record: Prostate adenocarcinoma PC3-175, mean±SD. As to the method: as §1, §2
A further series relates to PC3-puro. Described as above. The settings on record: Prostate adenocarcinoma PC3-puro, mean±SD. Type of series: cell-based. As to the method:
as §1, §2

The subject of the next series is SaOS-2-His273. Described as above. The settings on record: Osteosarcoma SaOS-2-His273, mean±SD. Type of series: cell-based. As to the method: as §1, §2
In the next series the test system is SaOS-2. Described as above. The settings on record: Homo sapiens, Osteosarcoma SaOS-2, mean±SD. Type of series: cell-based. As to the method:
as §1, §2

Another series has as its system U-2OS. The description is as above. Type of series: cell-based. The settings on record: Homo sapiens, U2OS, Osteosarcoma U-2OS, mean±SD. As to the method: as §1, §2
A further series relates to AML MV-4-11 cells. Put plainly: Hollow fiber in vivo mouse model. The settings on record: AML MV-4-11 cells in hollow fibers in mice; end of the experiment; by number. As to the method:
Data is shown as mean±SEM (n=7-8).
Furthermore, in vivo experiments using the hollow fiber mouse model with 2-(hydroxymethyl)-2-(methoxymethyl)quinuclidin-3-one indicate that inventive compounds have a significant anti-leukemic effect. These experiments were performed using the hollow fiber in vivo mouse model (for a short description of the model, cf. the internet website http://dtp.nci.nih.gov/timeline/noflash/milestones/M13_hollow_fiber.htm).

Series [1] in a line: Stability studies of APR-246 in an aqueous system at different pH. Type of series: physicochemical. As to the method:
Several aqueous formulations of APR-246 and of the hydrochloric acid addition salt of APR-246 were prepared and tested for stability.
The stability increases with decreased pH. To establish a suitable pH for APR-246 with respect to stability, studies with the drug substance in different solutions at different pH were performed.
(§3) HPLC—Chromatography was performed on an Agilent 1100/1200 series HPLC system using a Purospher Star RP-18e, 5 μm (250×4.6) mm Column at 20° C. Sample temperature was set to 5° C. by a thermostat. Detection was accomplished by means of a UV/VIS DAD detector at 210 nm. The flow rate was set to 1.0 mL/min and the injection volume was 10 μL. The mobile phase used was a gradient of phosphate buffer (A) in acetonitrile (B): 0-5 min: 90% A, 5-20 min: 70% A, 20-35 min: 20% A, 35-45 min: 90% A. The calibration was obtained using pure APR-246 standard solutions freshly prepared prior to analyses. Data acquisition was performed electronically. The method has been validated.

Series [2] in a line: Long term stability studies of APR-246 in aqueous system. Type of series: physicochemical. As to the method: as §3, with “APR-246 stock solutions were manufactured at a concentration of about 150 mg/mL at pH 3.9. The finished product consisted of 21.5-22.0 mL of drug product aseptically filled into presterilized 50 mL glass vials. The manufacturing was in compliance with Good Manufacturing Practices regulations. […] HPLC—Chromatography” for “HPLC—Chromatography”

Series [3] can be described thus: HPLC-UV before and after autoclaving of APR-246 solution. Type of series: physicochemical. The settings on record: autoclaving at 121° C. As to the method:
as §3, with “validated. The APR-246 drug product was a sterile concentrate for solution for infusion. The solution was sterilised by filtration according to Ph Eur standard method and aseptically filled in vials.” for “validated.”

The nature of series [4]: Infusion bag compatibility study. Type of series: physicochemical. As to the method: as §3, with “validated. This example summarizes the results of a compatibility study of the APR-246 drug product (150 mg/mL stock solution) in six infusion bags, to confirm physical and chemical stability of the drug product in the NaCl solution and compatibility with infusion bags and tubing device material. The drug product should be diluted with sterile 0.9% NaCl solution for infusion to a total volume of 500 ml before administration. The duration of the study covers a period beyond finalisation of infusion to the patient. The study was designed for a worst case lowest dose of 0.15 mg/mL and for a worst case highest dose of 24 mg/mL. […]” for “validated.”

Series [5] in a line: Solubility and pH of APR-246 in water solutions. Type of series: physicochemical.

Take `COCC1(CO)C(=O)C2CCN1CC2` (stereo not shown) [APR-246, 2-(hydroxymethyl)-2-(methoxymethyl)quinuclidin-3-one]: the IC50 (as a rule, the midpoint of a concentration-inhibition curve) turned out to be 10 ± 0.6 µM in the series with 22Rv1; 3 ± 2 µM with BT-474; 14 ± 8 µM with H1299-His175; 16 ± 7 µM in the series on H1299; 25 ± 5 µM with HT-29; 7 ± 1 µM in the series on KBM3. In addition, the IC50 in the series with MCF-7 amounted to 15 ± 1 µM; with MDA-MB-231 it was 18 ± 5 µM; in the series with PC3-175, 23 ± 7 µM; in the series on PC3-puro it was 27 ± 3 µM; in the series on SaOS-2-His273, 14 ± 3 µM; in the series on SaOS-2, 27 ± 5 µM. The molecule also showed an IC50 in the series on U-2OS of 15 ± 4 µM. The “net growth of leukemic cells” value in the series on AML MV-4-11 cells is given as “about −25%”. In [1] (pH above 6, model systems of Table 3), the “stability of formulations with pH above 6” value is “stability problems”. Besides, in series [1] (room temperature and lower temperatures, regardless of the concentration profile), the “degradation in aqueous solutions” value is recorded as “suffered from degradation”. Further, the “long term stability in the inventive formulation” value in series [2] (formulated for clinical use, about 150 mg/mL, pH 3.9) is “stable”. For the same molecule, the “expected degradation on storage” value in series [2] (over a period of two years, stored at 2-8° C.) is on record as “no significant degradation”. For the same molecule, in series [3], the “degradation on autoclaving the solution in the final container” value is recorded as “degradation was too pronounced”. Moreover, the “stability in infusion bag over the range of the study” value in [4] (high concentration) and in series [4] (low concentration) was “satisfactory stability” each time. The “solubility in water solutions” value in series [5] was “readily soluble”.
